Columns and labels:
Male C57BL/6 mice = assay: Food intake after intraperitoneal injection in overnight-fasted mice; assay type: in vivo; settings: for reduction of food intake by 30 μg/kg versus a 100 μg/kg dose of PYY(3-36): dose response, peripheral injection after overnight fast
Procedure: (§1) Male C57BL/6 mice (20-30 g) were used for all mouse experiments. Male Wistar rats were used for the rat experiments. Mice or rats were individually housed in IVC cages. Animals were randomised by weight and fasted overnight for 16 hrs before intraperitoneal injection at 9 am. Food intake was measured at 1, 2, 4, 6 and 24 hours post injection. All peptide solutions were prepared freshly the morning of the study and injected as 100 μl. All statistics are calculated using the student's paired t-test.
Mice were injected with PYY(3-36) 100 μg/kg, allo_ILeu^3 PYY(3-36) 100 μg/kg, D_allo_ILeu^3 PYY(3-36) 100 μg/kg or saline (n=10/group) and food intake was measured at time intervals over 24 hours. In the Figure, significance versus saline is indicated by *=p<0.05, **=p<0.01, ***=p<0.001 paired t-test.
(§2) 30 μg/kg or 100 μg/kg of PYY(3-36) or D_allo_ILeu^3 PYY(3-36) was injected after an overnight fast and food intake was measured at time intervals over a period of 24 hours. In the Figures, significance versus saline is indicated by *=p<0.05, **=p<0.01, ***=p<0.001 paired t-test.

Male Wistar rats = assay: Food intake after intraperitoneal injection in overnight-fasted rats; assay type: in vivo; settings: for reduction of food intake by 30 μg/kg versus a 100 μg/kg dose of PYY(3-36): dose response, peripheral injection after overnight fast
Procedure: as §1
as §2, with “The experiment was identical to Example 2, except that Wistar rats were used instead of C57BL/6 mice. 30” for “30”

[1] = from 30 μg/kg vs 100 μg/kg comparison

Substance: D-allo-Ile^3 PYY3-36 [D_allo_ILeu^3 PYY(3-36)]
- decrease of food intake over the total period 0-4 hours versus native PYY3-36 (Male C57BL/6 mice; 0-4 hours): to a greater extent
- cumulative food intake compared to the PYY(3-36) injected group (p, paired t-test) (Male C57BL/6 mice; 100 μg/kg each, 0-1 hr): 0.0138
- cumulative food intake compared to the PYY(3-36) injected group (p, paired t-test) (Male C57BL/6 mice; 100 μg/kg each, 0-2 hr): 0.0063
- cumulative food intake compared to the PYY(3-36) injected group (p, paired t-test) (Male C57BL/6 mice; 100 μg/kg each, 0-4 hr): 0.0003
- cumulative food intake compared to the PYY(3-36) injected group (p, paired t-test) (Male C57BL/6 mice; 100 μg/kg each, 0-6 hr): 0.0024
- food intake over a 24 hr period compared to the PYY(3-36) 100 μg/kg group (p, paired t-test) (Male C57BL/6 mice; 100 μg/kg each, 24 hr): 0.0554
- food intake compared with saline (Male C57BL/6 mice; 100 μg/kg intraperitoneal after overnight fast, n=10/group): significantly decreased food intake
- reduction of food intake by 30 μg/kg versus a 100 μg/kg dose of PYY(3-36) (Male C57BL/6 mice): at least as powerful
- reduction of food intake by 30 μg/kg versus a 100 μg/kg dose of PYY(3-36) (Male C57BL/6 mice; listed as D-allo-Ile^3 PYY3-36): same decrease in food intake
- superiority in efficacy over PYY(3-36) (Male C57BL/6 mice; [1]): 3 fold
- decrease of food intake over the total period 0-4 hours versus native PYY3-36 (Male Wistar rats; 0-4 hours): to a greater extent
- reduction of food intake by 30 μg/kg versus a 100 μg/kg dose of PYY(3-36) (Male Wistar rats): at least as powerful
- reduction of food intake by 30 μg/kg versus a 100 μg/kg dose of PYY(3-36) (Male Wistar rats; listed as D-allo-Ile^3 PYY3-36): same decrease in food intake
- superiority in efficacy over PYY(3-36) (Male Wistar rats; [1]): 3 fold
- decrease in food intake versus the same quantity of normal human PYY3-36 (Male Wistar rats; same quantity): greater decrease in food intake

From patent US8202836B2, “Modified PYY (3-36) peptides and their effects on feeding behavior” (Imperial Innovations Limited, priority 2005, dated 2012)
